According to PubChem BioAssay AID248 (DTP/NCI, 2004):
Several values for one entry are separate records, joined by “and”; a condition that tells them apart may be missing. Equal values may be shown once. Toxic doses and inconclusive results are not listed. No stated cut-off is given here; in the data, active means T/C of 150% or more; inactive means T/C below 125%.

Tested on: L1210 leukemia ip in BDF1 mice, survival T/C
Experiment: NCI In Vivo Anticancer Drug Screen. Data for tumor model L1210 Leukemia (intraperitoneal) in B6D2F1 (BDF1) mice
Conditions: endpoint: mean survival time, higher = longer survival
Method in brief: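 Antitumor effect is assessed in tumor-bearing animals. Survival in the compound arm is compared with a vehicle-dosed control arm and expressed as their quotient.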

[1] = dose: 25.0 mg/kg/injection, schedule: Q04DX002 (ip), vehicle: Klucel (hydroxypropylcellulose) (HPC)
[2] = dose: 100.0 mg/kg/injection, schedule: Q01DX001 (ip), vehicle: Klucel (hydroxypropylcellulose) (HPC)
[3] = dose: 100.0 mg/kg/injection, schedule: Q01DX009 (ip), vehicle: Klucel (hydroxypropylcellulose) (HPC)
[4] = dose: 100.0 mg/kg/injection, schedule: Q04DX003 (ip), vehicle: Klucel (hydroxypropylcellulose) (HPC)
[5] = dose: 200.0 mg/kg/injection, schedule: Q01DX001 (ip), vehicle: Klucel (hydroxypropylcellulose) (HPC)
[6] = dose: 200.0 mg/kg/injection, schedule: Q01DX009 (ip), vehicle: Klucel (hydroxypropylcellulose) (HPC)
[7] = dose: 200.0 mg/kg/injection, schedule: Q04DX003 (ip), vehicle: Klucel (hydroxypropylcellulose) (HPC)
[8] = dose: 400.0 mg/kg/injection, schedule: Q01DX001 (ip), vehicle: Klucel (hydroxypropylcellulose) (HPC)
[9] = dose: 400.0 mg/kg/injection, schedule: Q01DX009 (ip), vehicle: Klucel (hydroxypropylcellulose) (HPC)
[10] = dose: 400.0 mg/kg/injection, schedule: Q04DX003 (ip), vehicle: Klucel (hydroxypropylcellulose) (HPC)
[11] = dose: 100.0 mg/kg/injection, schedule: Q01DX001 (ip), vehicle: saline
[12] = dose: 200.0 mg/kg/injection, schedule: Q01DX001 (ip), vehicle: saline
[13] = dose: 400.0 mg/kg/injection, schedule: Q01DX001 (ip), vehicle: saline
[14] = dose: 100.0 mg/kg/injection, schedule: Q01DX009 (ip), vehicle: saline
[15] = dose: 200.0 mg/kg/injection, schedule: Q01DX009 (ip), vehicle: saline
[16] = dose: 400.0 mg/kg/injection, schedule: Q01DX009 (ip), vehicle: saline

Measured: T/C

O=C(NC(C(=O)O)c1ccccc1)OCc1ccccc1 (centres undefined)
inactive: dose: 100.0 mg/kg/injection, schedule: Q01DX009 (ip), vehicle: saline with Tween-80 111 % of control and 97 % of control | dose: 200.0 mg/kg/injection, schedule: Q01DX009 (ip), vehicle: saline with Tween-80 91 % of control and 92 % of control | dose: 400.0 mg/kg/injection, schedule: Q01DX009 (ip), vehicle: saline with Tween-80 89 % of control and 93 % of control

Cc1ccc(CNC2=C(Cl)C(=O)c3ccccc3C2=O)cc1C
inactive: dose: 12.5 mg/kg/injection, schedule: Q04DX002 (ip), vehicle: Klucel (hydroxypropylcellulose) (HPC) 92 % of control | [1] 87 % of control

CC(=O)Nc1nc(C)c(CCC(C)C)c(Cl)n1
inactive: [1] 104 % of control | dose: 50.0 mg/kg/injection, schedule: Q04DX002 (ip), vehicle: Klucel (hydroxypropylcellulose) (HPC) 93 % of control | dose: 100.0 mg/kg/injection, schedule: Q04DX002 (ip), vehicle: Klucel (hydroxypropylcellulose) (HPC) 105 % of control

Nc1nc2ncsc2c(=O)[nH]1
inactive: dose: 100.0 mg/kg/injection, schedule: Q01DX001 (ip), vehicle: saline with Tween-80 89 % of control | dose: 200.0 mg/kg/injection, schedule: Q01DX001 (ip), vehicle: saline with Tween-80 89 % of control | dose: 400.0 mg/kg/injection, schedule: Q01DX001 (ip), vehicle: saline with Tween-80 102 % of control

CCCCNC(=O)C1C=C2c3cccc4c3C(CN4)CC2N(C)C1 (centres undefined)
inactive: dose: 25.0 mg/kg/injection, schedule: Q01DX009 (ip), vehicle: saline with Tween-80 87 % of control | dose: 50.0 mg/kg/injection, schedule: Q01DX009 (ip), vehicle: saline with Tween-80 89 % of control

COc1cc(OC)cc(C(=O)N2CC2)c1
inactive: dose: 25.0 mg/kg/injection, schedule: Q01DX009 (ip), vehicle: water 100 % of control | dose: 50.0 mg/kg/injection, schedule: Q01DX009 (ip), vehicle: water 88 % of control

Cc1ncc(C(C)(O)c2ccc(Cl)cc2)n1Cc1ccccc1 (centres undefined)
inactive: [2] 112 % of control | [3] 92 % of control | [4] 92 % of control | [5] 98 % of control | [6] 89 % of control | [7] 88 % of control | [8] 118 % of control | [9] 92 % of control | [10] 92 % of control

CCOC(=O)C(C(=O)OCC)C1c2ccccc2C([N+](=O)[O-])c2ccccc21 (centres undefined)
inactive: [2] 91 % of control | [3] 96 % of control | [5] 96 % of control | [6] 89 % of control | [8] 91 % of control | [9] 103 % of control

O=C(c1ccccc1)c1cc(CN(C2CCCCC2)C2CCCCC2)c(O)cc1O
inactive: [11] 90 % of control | [12] 91 % of control | [13] 96 % of control

Nc1ccnc(Br)c1
inactive: [14] 103 % of control | dose: 100.0 mg/kg/injection, schedule: Q04DX003 (ip), vehicle: saline 109 % of control | [15] 100 % of control | dose: 200.0 mg/kg/injection, schedule: Q04DX003 (ip), vehicle: saline 107 % of control | [16] 101 % of control | dose: 400.0 mg/kg/injection, schedule: Q04DX003 (ip), vehicle: saline 112 % of control

O=C(NO)c1cccnc1
inactive: [3] 97 % of control | [6] 102 % of control | dose: 270.0 mg/kg/injection, schedule: Q01DX009 (ip), vehicle: acetone 102 % of control | dose: 270.0 mg/kg/injection, schedule: Q01DX015 (ip), vehicle: water 121 % of control | dose: 400.0 mg/kg/injection, schedule: Q01DX001 (ip), vehicle: water 99 % of control | [9] 101 % of control | dose: 400.0 mg/kg/injection, schedule: Q01DX009 (ip), vehicle: acetone 109 % of control | dose: 600.0 mg/kg/injection, schedule: Q01DX001 (ip), vehicle: water 106 % of control | dose: 600.0 mg/kg/injection, schedule: Q01DX009 (ip), vehicle: acetone 100 % of control | dose: 800.0 mg/kg/injection, schedule: Q01DX001 (ip), vehicle: water 99 % of control | dose: 800.0 mg/kg/injection, schedule: Q01DX009 (ip), vehicle: Klucel (hydroxypropylcellulose) (HPC) 109 % of control | dose: 800.0 mg/kg/injection, schedule: Q01DX009 (ip), vehicle: acetone 103 % of control | dose: 800.0 mg/kg/injection, schedule: Q01DX015 (ip), vehicle: water 110 % of control and 117 % of control

Oc1c(CN2CCOCC2)cc(CN2CCOCC2)cc1CN1CCOCC1
inactive: [11] 116 % of control | [14] 95 % of control | dose: 100.0 mg/kg/injection, schedule: Q04DX003 (ip), vehicle: saline with Tween-80 104 % of control | [12] 98 % of control | [15] 90 % of control | dose: 200.0 mg/kg/injection, schedule: Q04DX003 (ip), vehicle: saline with Tween-80 95 % of control | [13] 96 % of control | [16] 100 % of control | dose: 400.0 mg/kg/injection, schedule: Q04DX003 (ip), vehicle: saline with Tween-80 98 % of control

C1=CC([P+](Cc2ccccc2)(c2ccccc2)c2ccccc2)CC1 (centres undefined)
inactive: dose: 6.25 mg/kg/injection, schedule: Q04DX003 (ip), vehicle: saline 95 % of control | dose: 12.5 mg/kg/injection, schedule: Q04DX003 (ip), vehicle: saline 90 % of control | dose: 25.0 mg/kg/injection, schedule: Q04DX003 (ip), vehicle: saline 96 % of control | dose: 50.0 mg/kg/injection, schedule: Q04DX003 (ip), vehicle: saline 93 % of control and 96 % of control

CCCCN1CCSC1=S
inactive: dose: 100.0 mg/kg/injection, schedule: Q01DX009 (ip), vehicle: alcohol 93 % of control | dose: 100.0 mg/kg/injection, schedule: Q04DX002 (ip), vehicle: alcohol 100 % of control | dose: 200.0 mg/kg/injection, schedule: Q01DX009 (ip), vehicle: alcohol 96 % of control | dose: 200.0 mg/kg/injection, schedule: Q04DX002 (ip), vehicle: alcohol 87 % of control | dose: 400.0 mg/kg/injection, schedule: Q01DX009 (ip), vehicle: alcohol 86 % of control | dose: 400.0 mg/kg/injection, schedule: Q04DX002 (ip), vehicle: alcohol 103 % of control

CCOc1ccc(/C=C(\C#N)c2cccc(Cl)c2)cc1
inactive: [3] 100 % of control | [6] 93 % of control | [9] 91 % of control

CNC(=O)Oc1cc(OC)ccc1C(=O)c1ccccc1
inactive: [3] 94 % of control | [6] 96 % of control | [9] 97 % of control

Nc1ccc(CNC(=O)COc2ccc(Cl)cc2C(=O)O)cc1
inactive: [4] 110 % of control | [7] 94 % of control | [10] 100 % of control

NCc1ccccn1
inactive: [11] 98 % of control | [13] 95 % of control

COc1cc([N+](=O)[O-])c(C)cc1Br
inactive: [11] 105 % of control | dose: 100.0 mg/kg/injection, schedule: Q04DX003 (ip), vehicle: acetone 98 % of control | [12] 107 % of control | dose: 200.0 mg/kg/injection, schedule: Q04DX003 (ip), vehicle: acetone 100 % of control | [13] 107 % of control | dose: 400.0 mg/kg/injection, schedule: Q04DX003 (ip), vehicle: acetone 95 % of control

COc1ccc(C)cc1N=Nc1cc(C)ccc1OC
inactive: dose: 100.0 mg/kg/injection, schedule: Q01DX009 (ip), vehicle: gum acacia 100 % of control | dose: 100.0 mg/kg/injection, schedule: Q04DX003 (ip), vehicle: gum acacia 91 % of control | dose: 200.0 mg/kg/injection, schedule: Q01DX009 (ip), vehicle: gum acacia 91 % of control | dose: 200.0 mg/kg/injection, schedule: Q04DX003 (ip), vehicle: gum acacia 86 % of control | dose: 400.0 mg/kg/injection, schedule: Q01DX009 (ip), vehicle: gum acacia 88 % of control | dose: 400.0 mg/kg/injection, schedule: Q04DX003 (ip), vehicle: gum acacia 92 % of control
